Measurements reported in patent US20060089375A1, “Pyrazolo[3,4-b] pyridine compounds, and their use as phosphodiesterase inhibitors” (priority 2002, published 2006).

Biological target: T1, PDE4B (human recombinant) (Homo sapiens, UniProt Q07343)
T1 construct: made in house
Experiment: Inhibition of PDE4B activity: radioactive SPA or IMAP Fluorescence Polarisation (FP) assay
Format: biochemical
Settings: PDE4B inhibitory activity, one reading or average of ca. 2-6 readings, read-out: PDE4B pIC50 (± about 0.5) (converted)
Excerpt: Human recombinant PDE4B, in particular the 2B splice variant thereof (HSPDE4B2B), is disclosed in WO 94/20079 and also M. M. McLaughlin et al., “A low Km, rolipram-sensitive, cAMP-specific phosphodiesterase from human brain: cloning and expression of cDNA, biochemical characterisation of recombinant protein, and tissue distribution of mRNA”, J. Biol. Chem., 1993, 268, 6470-6476. For example, in Example 1 of WO 94/20079, human recombinant PDE4B is described as being expressed in the PDE-deficient yeast Saccharomyces cerevisiae strain GL62, e.g. after induction by addition of 150 uM CuSO4, and 100,000×g supernatant fractions of yeast cell lysates are described for use in the harvesting of PDE4B enzyme.
The ability of compounds to inhibit catalytic activity at PDE4B or 4D (human recombinant), PDE3 (from bovine aorta), PDE5 (human recombinant) or PDE6 (from bovine retina) was determined by Scintillation Proximity Assay (SPA) in 96-well format. Test compounds (preferably as a solution in DMSO, e.g. 0.5 to 1 microlitre (ul) volume) were preincubated at ambient temperature (room temperature, e.g. 19-23° C.) in Wallac Isoplates (code 1450-514) with PDE enzyme in 50 mM Tris-HCl buffer pH 7.5, 8.3 mM MgCl2, 1.7 mM EGTA, 0.05% (w/v) bovine serum albumin for 10-30 minutes (usually 30 minutes). The enzyme concentration was adjusted so that no more than 20% hydrolysis of the substrate defined below occurred in control wells without compound, during the incubation. For the PDE3, PDE4B and PDE4D assays, [5′,8-^3H]Adenosine 3′,5′-cyclic phosphate (Amersham Pharmacia Biotech, code TRK.559; or Amersham Biosciences UK Ltd, Pollards Wood, Chalfont St Giles, Buckinghamshire HP8 4SP, UK) was added to give 0.05 uCi per well and ˜10 nM final concentration. For the PDE5 and PDE6 assays, [8-^3H]Guanosine 3′,5′-cyclic phosphate (Amersham Pharmacia Biotech, code TRK.392) was added to give 0.05 uCi per well and ˜36 nM final concentration. Plates, e.g. containing approx. 100 ul volume of assay mixture, were mixed on an orbital shaker for 5 minutes and incubated at ambient temperature for 1 hour. Phosphodiesterase SPA beads (Amersham Pharmacia Biotech, code RPNQ 0150) were added ([…] per well) to terminate the assay. Plates were sealed and shaken and allowed to stand at ambient temperature for 35 minutes to 1 hour (preferably 35 minutes) to allow the beads to settle. Bound radioactive product was measured using a WALLAC TRILUX 1450 Microbeta scintillation counter. For inhibition curves, 10 concentrations (1.5 nM-30 uM) of each compound were assayed. Curves were analysed using ActivityBase and XLfit (ID. Business Solutions Limited, 2 Ocean Court, Surrey Research Park, Guildford, Surrey GU2 7QB, United Kindgom) Results were expressed as pIC50 values.
The ability of compounds to inhibit catalytic activity at PDE4B (human recombinant) or PDE4D (human recombinant) was determined by IMAP Fluorescence Polarisation ([…]) assay (IMAP Explorer kit, available from Molecular Devices Corporation, Sunnydale, Calif., USA; Molecular Devices code: R^8062) in 384-well format. The IMAP FP assay is able to measure PDE activity in an homogenous, non-radioactive assay format. The FP assay uses the ability of immobilised trivalent metal cations, coated onto nanoparticles (tiny beads), to bind the phosphate group of Fl-AMP that is produced on the hydrolysis of fluorescein-labelled (Fl) cyclic adenosine mono-phosphate (Fl-cAMP) to the non-cyclic Fl-AMP form. […] Binding of Fl-AMP product to the beads (coated with the immobilised trivalent cations) slows the rotation of the bound Fl-AMP and leads to an increase in the fluorescence polarisation ratio of parallel to perpendicular light. Inhibition of the PDE reduces/inhibits this signal increase. […]

T1 sequence (Q07343 1-564 isoform Q07343-2): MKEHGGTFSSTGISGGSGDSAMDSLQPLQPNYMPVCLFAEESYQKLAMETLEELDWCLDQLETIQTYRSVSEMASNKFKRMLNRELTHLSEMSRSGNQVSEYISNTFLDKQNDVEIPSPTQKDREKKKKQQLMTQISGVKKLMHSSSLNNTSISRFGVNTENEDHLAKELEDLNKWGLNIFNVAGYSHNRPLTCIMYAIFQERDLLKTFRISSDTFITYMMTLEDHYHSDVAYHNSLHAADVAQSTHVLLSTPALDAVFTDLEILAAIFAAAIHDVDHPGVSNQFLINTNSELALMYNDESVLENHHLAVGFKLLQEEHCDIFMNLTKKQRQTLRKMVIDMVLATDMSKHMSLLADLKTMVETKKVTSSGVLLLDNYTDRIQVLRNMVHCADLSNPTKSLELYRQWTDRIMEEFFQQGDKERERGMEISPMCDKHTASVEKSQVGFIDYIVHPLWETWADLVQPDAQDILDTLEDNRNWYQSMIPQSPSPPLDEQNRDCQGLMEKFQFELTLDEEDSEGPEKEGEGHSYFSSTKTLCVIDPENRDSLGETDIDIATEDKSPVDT

With `CCn1ncc2c(NC3CCC(=O)CC3)c(C(=O)NCc3ccc(C(F)(F)F)cc3)cnc21` [Example 267, 1-Ethyl-4-[(4-oxocyclohexyl)amino]-N-{[4-(trifluoromethyl)phenyl]methyl}-1H-pyrazolo[3,4-b]pyridine-5-carboxamide] as the compound, how does the IC50 read?
The IC50 was 0.1 to 6.31 nM.

Which IC50 does the source give for `CCn1ncc2c(NC3CCC(=O)CC3)c(C(=O)NC3Cc4ccccc4C3)cnc21` [Example 271, N-(2,3-Dihydro-1H-inden-2-yl)-1-ethyl-4-[(4-oxocyclohexyl)amino]-1H-pyrazolo[3,4-b]pyridine-5-carboxamide] here?
Its IC50 is 0.1 to 6.31 nM.

`CCn1ncc2c(NC3CCCCC3)c(C(=O)NCc3ccc(OC)cc3)cnc21` [Example 431, 4-(Cyclohexylamino)-1-ethyl-N-{[4-(methyloxy)phenyl]methyl}-1H-pyrazolo[3,4-b]pyridine-5-carboxamide] was tested. Which IC50 did it give?
The IC50 was 0.1 to 6.31 nM.

Which IC50 does the source give for `CCn1ncc2c(NC3CCOCC3)c(C(=O)NCc3ccc(C)c(Cl)c3)cnc21` [Example 493, N-[(3-Chloro-4-methylphenyl)methyl]-1-ethyl-4-(tetrahydro-2H-pyran-4-ylamino)-1H-pyrazolo[3,4-b]pyridine-5-carboxamide] here?
The IC50 was 0.1 to 6.31 nM.

For `CCn1ncc2c(NC3CCOCC3)c(C(=O)NCc3ccc(Cl)cc3C)cnc21` [Example 494, N-[(4-Chloro-2-methylphenyl)methyl]-1-ethyl-4-(tetrahydro-2H-pyran-4-ylamino)-1H-pyrazolo[3,4-b]pyridine-5-carboxamide], which IC50 is on record?
Its IC50 is 0.1 to 6.31 nM.

Which IC50 does the source give for `CCn1ncc2c(NC3CCOCC3)c(C(=O)NCc3ccccc3OC(F)F)cnc21` [Example 495, N-({2-[(Difluoromethyl)oxy]phenyl}methyl)-1-ethyl-4-(tetrahydro-2H-pyran-4-ylamino)-1H-pyrazolo[3,4-b]pyridine-5-carboxamide] here?
Its IC50 is 0.1 to 6.31 nM.

`CCn1ncc2c(NC3CCOCC3)c(C(=O)NCc3cccc(OC(F)F)c3)cnc21` [Example 498, N-({3-[(Difluoromethyl)oxy]phenyl}methyl)-1-ethyl-4-(tetrahydro-2H-pyran-4-ylamino)-1H-pyrazolo[3,4-b]pyridine-5-carboxamide] was tested. Which IC50 did it give?
Its IC50 is 0.1 to 6.31 nM.

`CCn1ncc2c(NC3CCOCC3)c(C(=O)NCc3ccc(C)cc3)cnc21` [Example 528, 1-Ethyl-N-[(4-methylphenyl)methyl]-4-(tetrahydro-2H-pyran-4-ylamino)-1H-pyrazolol[3,4-b]pyridine-5-carboxamide] was tested. Which IC50 did it give?
The IC50 was 0.1 to 6.31 nM.

For `CCn1ncc2c(NC3CCOCC3)c(C(=O)NCc3ccc(C(C)C)cc3)cnc21` [Example 551, 1-Ethyl-N-{[4-(1-methylethyl)phenyl]methyl)-4-(tetrahydro-2H-pyran-4-ylamino)-1H-pyrazolo[3,4-b]pyridine-5-carboxamide], which IC50 is on record?
Its IC50 is 0.1 to 6.31 nM.

For `CCc1cc(CC)cc(CNC(=O)c2cnc3c(cnn3CC)c2NC2CCOCC2)c1` [Example 575, N-[(3,5-Diethylphenyl)methyl]-1-ethyl-4-(tetrahydro-2H-pyran-4-ylamino)-1H-pyrazolo[3,4-b]pyridine-5-carboxamide], which IC50 is on record?
Its IC50 is 0.1 to 6.31 nM.

With `CCn1ncc2c(NC3CCOCC3)c(C(=O)NCc3cc(Cl)cc(Cl)c3)cnc21` [Example 581, N-[(3,5-Dichlorophenyl)methyl]-1-ethyl-4-(tetrahydro-2H-pyran-4-ylamino)-1H-pyrazolo[3,4-b]pyridine-5-carboxamide] as the compound, how does the IC50 read?
Its IC50 is 0.1 to 6.31 nM.

How did the IC50 turn out when `CCn1ncc2c(NC3CCOCC3)c(C(=O)NCc3ccc(C)cc3C)cnc21` [Example 584, N-[(2,4-Dimethylphenyl)methyl]-1-ethyl-4-(tetrahydro-2H-pyran-4-ylamino)-1H-pyrazolo[3,4-b]pyridine-5-carboxamide] was run?
The IC50 was 0.1 to 6.31 nM.

Which IC50 does the source give for `CCn1ncc2c(NC3CCOCC3)c(C(=O)NCc3ccccn3)cnc21` [Example 600, 1-Ethyl-N-(2-pyridinylmethyl)-4-(tetrahydro-2H-pyran-4-ylamino)-1H-pyrazolo[3,4-b]pyridine-5-carboxamide] here?
Its IC50 is 12.6 to 100 nM.

For `CCc1ccccc1CNC(=O)c1cnc2c(cnn2CC)c1NC1CCOCC1` [Example 619, 1-Ethyl-N-[(2-ethylphenyl)methyl]-4-(tetrahydro-2H-pyran-4-ylamino)-1H-pyrazolo[3,4-b]pyridine-5-carboxamide], which IC50 is on record?
The IC50 was 0.1 to 6.31 nM.

For `CCn1ncc2c(NC3CCOCC3)c(C(=O)NCc3ccc(Cl)cc3F)cnc21` [Example 622, N-[(4-Chloro-2-fluorophenyl)methyl]-1-ethyl-4-(tetrahydro-2H-pyran-4-ylamino)-IH-pyrazolo[3,4-b]pyridine-5-carboxamide], which IC50 is on record?
Its IC50 is 0.1 to 6.31 nM.

Which IC50 does the source give for `CCn1ncc2c(NC3CCOCC3)c(C(=O)NCc3cc(C)cc(C)c3)cnc21` [Example 624, N-[(3,5-Dimethylphenyl)methyl]-1-ethyl-4-(tetrahydro-2H-pyran-4-ylamino)-1H-pyrazolo[3,4-b]pyridine-5-carboxamide] here?
The IC50 was 0.1 to 6.31 nM.

Which IC50 does the source give for `CCn1ncc2c(NC3CCOCC3)c(C(=O)NCc3cccc(C)c3C)cnc21` [Example 625, N-[(2,3-Dimethylphenyl)methyl]-1-ethyl-4-(tetrahydro-2H-pyran-4-ylamino)-1H-pyrazolo[3,4-b]pyridine-5-carboxamide] here?
Its IC50 is 0.1 to 6.31 nM.

For `CCn1ncc2c(NC3CCOCC3)c(C(=O)NCc3cccc(Cl)c3Cl)cnc21` [Example 626, N-[(2,3-Dichlorophenyl)methyl]-1-ethyl-4-(tetrahydro-2H-pyran-4-ylamino)-1H-pyrazolo[3,4-b]pyridine-5-carboxamide], which IC50 is on record?
The IC50 was 0.1 to 6.31 nM.

Which IC50 does the source give for `CCn1ncc2c(NC3CCOCC3)c(C(=O)NCc3ccc(Br)cc3)cnc21` [Example 628, N-[(4-Bromophenyl)methyl]-1-ethyl-4-(tetrahydro-2H-pyran-4-ylamino)-1H-pyrazolo[3,4-b]pyridine-5-carboxamide] here?
Its IC50 is 0.1 to 6.31 nM.

How did the IC50 turn out when `CCn1ncc2c(NC3CCOCC3)c(C(=O)NCc3ccc(I)cc3)cnc21` [Example 630] was run?
The IC50 was 0.1 to 6.31 nM.

How did the IC50 turn out when `CCc1ccc(CNC(=O)c2cnc3c(cnn3CC)c2NC2CCOCC2)cc1` [Example 636, 1-Ethyl-N-[(4-ethylphenyl)methyl]-4-(tetrahydro-2H-pyran-4-ylamino)-1H-pyrazolo[3,4-b]pyridine-5-carboxamide] was run?
The IC50 was 0.1 to 6.31 nM.

Which IC50 does the source give for `CCn1ncc2c(NC3CCOCC3)c(C(=O)NCc3ccccc3I)cnc21` [Example 638, 1-Ethyl-N-[(2-iodophenyl)methyl]-4-(tetrahydro-2H-pyran-4-ylamino)-1H-pyrazolo[3,4-b]pyridine-5-carboxamide] here?
The IC50 was 0.1 to 6.31 nM.

How did the IC50 turn out when `CCn1ncc2c(NC3CCOCC3)c(C(=O)NCc3c(CO)ccc(Cl)c3Cl)cnc21` [Example 643, N-{[2,3-Dichloro-6-(hydroxymethyl)phenyl]methyl}-1-ethyl-4-(tetrahydro-2H-pyran-4-ylamino)-1H-pyrazolo[3,4-b]pyridine-5-carboxamide] was run?
Its IC50 is 0.1 to 6.31 nM.

Which IC50 does the source give for `CCn1ncc2c(NC3CCOCC3)c(C(=O)NCc3c(C)cc(Cl)cc3Cl)cnc21` [Example 644, N-[(2,4-Dichloro-6-methylphenyl)methyl]-1-ethyl-4-(tetrahydro-2H-pyran-4-ylamino)-1H-pyrazolo[3,4-b]pyridine-5-carboxamide] here?
Its IC50 is 0.1 to 6.31 nM.

For `CCn1ncc2c(NC3CCOCC3)c(C(=O)NCc3ccc(CC(C)C)cc3)cnc21` [Example 645, 1-Ethyl-N-{[4-(2-methylpropyl)phenyl]methyl}-4-(tetrahydro-2H-pyran-4-ylamino)-1H-pyrazolo[3,4-b]pyridine-5-carboxamide], which IC50 is on record?
The IC50 was 0.1 to 6.31 nM.

`CCn1ncc2c(NC3CCC(=NO)CC3)c(C(=O)NCc3ccc(OC)cc3)cnc21` (centres unmarked) [Example 653, 1-Ethyl-4-{[4-(hydroxyimino)cyclohexyl]amino}-N-{[4-(methyloxy)phenyl]methyl}-1H-pyrazolo[3,4-b]pyridine-5-carboxamide] was tested. Which IC50 did it give?
The IC50 was 0.1 to 6.31 nM.
